According to patent US10660872B2, “Methods for treatment of cognitive decline” (Ramot at Tel-Aviv University Ltd., priority 2014, dated 2020):

Key:
ICR mice [1] = assay: hot plate test (analgesia); settings: single intraperitoneal dose, from 15 minutes after injection, hotplate 45° C.
ICR mice [2] = assay: open field test (immobility); settings: single intraperitoneal dose, five minutes in arena
aged ICR mice = assay: oasis maze test (spatial learning); settings: 0.002 mg/kg THC, three times a week for three weeks
ICR mice [3] = assay: body temperature using a rectal thermometer; settings: single intraperitoneal dose
aged mice = assay: Object Recognition Test (visual memory) in aged mice; settings: 0.002 mg/kg THC intraperitoneal, 3 times a week for three weeks
[4] = conventional dose 1, 2 or 10 mg/kg
[5] = low dose 0.001, 0.002 or 0.01 mg/kg

Structure (SMILES): CCCCCc1cc(O)c2c(c1)OC(C)(C)[C@@H]1CCC(C)=C[C@@H]21 [THC, (−)-trans-Δ^9-tetrahydrocannabinol]
- analgesia (latency to respond to noxious stimulus) (ICR mice [1]; [4]): induced conventional acute cannabinoid effects
- analgesia (latency to respond to noxious stimulus) (ICR mice [1]; [5]): failed to induce any of these effects
- immobility (slowing of motor activity) (ICR mice [2]; [4]): induced conventional acute cannabinoid effects
- immobility (slowing of motor activity) (ICR mice [2]; [5]): failed to induce any of these effects
- time to finding the filled well in test trials (aged ICR mice): find the filled well in significantly less time than aged mice treated with vehicle alone
- hypothermia (reduced body temperature) (ICR mice [3]; [4]): induced conventional acute cannabinoid effects
- hypothermia (reduced body temperature) (ICR mice [3]; [5]): failed to induce any of these effects
- adverse acute effects upon administration (aged mice): No adverse acute effects were recognized
